According to patent US9907852B2, “Anticancer agent and side-effect-alleviating agent” (National University Corporation University of Toyama, priority 2014, dated 2018):

What was measured:
[1] = tested on: PANC-1 (ATCC No. CRL-1469) cells
Procedure: After treatment for a period of 18-24 hours, the number of survival cells was counted with a Cell Counting Kit (Dojindo).

Miapaca-2 cells = assay: Tumor size in model transplanted pancreas cancer, existing anticancer agents combined with Burdock Fruit extract (Test Example 6); type: in vivo, mice; conditions: anticancer agent combined with GBS-01 750 mg/kg oral 5 days a week; about 4 weeks
Procedure: Miapaca-2 cells (5×10^6 cells/200 μl ) were subcutaneously transplanted under the armpit of BALB/cAJcl-nu/nu mice (CLEA Japan, Inc.), and after feeding of about 2 weeks those that grew to the size of about 100 mm^3 or about 600 mm^3 were selected and employed as the subject mice to be treated.
Thus prepared transplanted mice were divided into the respective groups, that is, an untreated group, a group administered an existing anticancer agent as a component having a variety of anticancer activities, a Burdock Fruit extract administered group and a group of combined administration of these agents, and the treatment was continued over about 4 weeks for 5 to 6 species of tumors in the respective groups. The existing anticancer agents used include Carboplatin (CBDCA, Bristol-Myers, peritoneal administration, 60 mg/kg once a week), Doxorubicin (Kyowa Hakko, peritoneal administration, 10 mg/kg twice a week), Oxaliplatin (Yakult, peritoneal administration, 8 mg/kg once a week), Everolimus (Novartis, oral administration, 5 mg/kg 5 times a week) , Bortezomib (Janssen Pharma, peritoneal administration, 1 mg/kg twice a week), Irinotecan (Yakult, peritoneal administration, 25 mg/kg twice a week), and Hydroxychloroquine (Sanofi, peritoneal administration, 100 mg/kg 5 times a week) . As for Burdock Fruit extract, 10% arctigenin-containing Burdock Fruit extract (Kracie Co., GBS-01) was used and orally administered at a dose of 750 mg/kg 5 days a week.
At intervals of 3 to 4 days, the mouse was fixed and the length (L), the minor axis (W) and the height (H) of tumor were measured by a precision digital vernier micrometer, from which the tumor size was calculated using the formula: Tumor size=4/3*pi*L/2*H/2*W/2(pi=3.14)
When the height cannot be measured, the formula: Tumor size=4/3*pi*L/2*(W/2)^2 was used for convenience.

[2] = tested on: pancreas cancer cell strain PANC-1; conditions: Non-Patent Document 1; cited from earlier work
Solubility in water = type: physicochemical

SMILES	Magnification of LD50 decrease [1]	tumor size reduced compared to a single preparation of Burdock Fruit extract (Miapaca-2 cells)	tumor size reduced compared to a single preparation of the anticancer agent (Miapaca-2 cells)	other results
C[C@]12CC[C@H](OS(=O)(=O)O)CC1=CC[C@@H]1[C@@H]2CC[C@]2(C)C(=O)CC[C@@H]12 [DHEA-S]	3.13			
CCN(CCO)CCCC(C)Nc1ccnc2cc(Cl)ccc12 (centres unmarked) [hydroxychloroquine]		1.9 times	2.5 times	
CC(C)C[C@H](NC(=O)[C@H](Cc1ccccc1)NC(=O)c1cnccn1)B(O)O [bortezomib, Bortezomib]		1.8 times	1.4 times	
CNC(=N)NCCC[C@H](N)C(=O)O [L-NMMA]	1.72			
CCc1c2c(nc3ccc(OC(=O)N4CCC(N5CCCCC5)CC4)cc13)-c1cc3c(c(=O)n1C2)COC(=O)[C@]3(O)CC [irinotecan, Irinotecan]		2.1 times	1.5 times	
Nc1nc(OCc2ccccc2)c2nc[nH]c2n1 [Benzylguanine]	8.24			
CCCCOc1cc(CC2CNC(=O)N2)ccc1OC (centres unmarked) [Ro-20-1724]	1.66			
CC(C)[C@H](CO)Nc1nc(Nc2cccc(Cl)c2)c2ncn(C(C)C)c2n1 [Purvalanol A]	1.71			
COc1cc(C[C@H]2C(=O)OC[C@@H]2Cc2ccc(OC)c(OC)c2)ccc1O [arctigenin]				removal of the viability of tumor cells in a low nutritional state [2]: effective; solubility in water (Solubility in water): slightly soluble
COc1cccc2c1C(=O)c1c(O)c3c(c(O)c1C2=O)C[C@@](O)(C(=O)CO)C[C@@H]3O[C@H]1C[C@H](N)[C@H](O)[C@H](C)O1 [doxorubicin, Doxorubicin]		1.4 times	about 1.5 times	
CO[C@H]1C[C@@H]2CC[C@@H](C)[C@@](O)(O2)C(=O)C(=O)N2CCCC[C@H]2C(=O)O[C@H]([C@H](C)C[C@@H]2CC[C@@H](OCCO)[C@H](OC)C2)CC(=O)[C@H](C)/C=C(\C)[C@@H](O)[C@@H](OC)C(=O)[C@H](C)C[C@H](C)/C=C/C=C/C=C/1C [everolimus, Everolimus]		2.1 times	1.4 times	
COc1ccc(C[C@H]2COC(=O)[C@@H]2Cc2ccc(O[C@@H]3O[C@H](CO)[C@@H](O)[C@H](O)[C@H]3O)c(OC)c2)cc1OC [arctiin]				solubility in water (Solubility in water): slightly soluble
Cc1cn([C@H]2C[C@H](N=[N+]=[N-])[C@@H](CO)O2)c(=O)[nH]c1=O [AZT]	4.67			
c1cc(-c2cnn3cc(-c4ccc(OCCN5CCCCC5)cc4)cnc23)ccn1 [Dorsomorphin]	6.14			
